# Activity calls are given as the source filed them. No rule for the calls is given here.
# Target: glutathione S-transferase (GST-GSH binding)
# Assay: GST–glutathione interaction disruption – biochemical, multiplex beads, flow cytometry, HPSMTB buffer, profiling panel (AID 1324);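 also: glutathione beads loaded with GST-green fluorescent protein and no fluorescent Bim peptide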
# Settings: multiplex bead flow cytometry, MCF
row,Structure (SMILES),EC50
1,CC1=CC(=O)c2c(O)ccc(O)c2C1=O,inactive
2,O=[N+]([O-])c1ccc(N/N=C/c2ccc(O)c(O)c2O)c(S(=O)(=O)N2CCOCC2)c1,inactive
3,CCN=c1scc(C)n1/N=C/c1ccc(O)c(O)c1O,inactive
4,CCN(CC)c1ccc(NC2=C(Cl)C(=O)c3ccccc3C2=O)cc1,inactive
5,COCCCNc1nc(=S)[nH]c2cc(OC)c(OC)cc12,5.35 µM
6,O=C(Nc1ccc2nc(-c3ccco3)c(-c3ccco3)nc2c1)N1CCCCCC1,inactive

# Same assay, conditions: multiplex bead flow cytometry, MCF, stronger effect = higher value, concentration not given here
row,Structure (SMILES),percent span inhibition
1,Cc1ccc(C)c(/C=C/C(=O)c2ccccc(=O)c2O)c1,inactive
2,COC(=O)CCC(=O)Nc1sc(C)c(C)c1C(N)=O,inactive
3,O=C(Nc1ccncc1)c1cc2ccccc2o1,inactive
4,Cc1cc(C)c2nc3nc(C)c(C)cc3c(N)c2c1,inactive
5,CCC(CC)C(=O)Nc1cccc(S(=O)(=O)c2cccc(NC(=O)C(CC)CC)c2)c1,inactive
6,CC(=O)NC1=C(NC2CCS(=O)(=O)C2)C(=O)c2ccccc2C1=O (stereo not given),inactive
7,COCc1cc(CN2CCCC(CNC(=O)c3ccc(F)cc3)C2)ccc1OC (stereo not given),inactive
8,CNCc1ccccc1Sc1ccc(O)c(O)c1,inactive
9,O=C(NCCCO)Nc1ccc2nc(-c3ccco3)c(-c3ccco3)nc2c1,inactive
10,O=C(CSc1nnc(-c2ccco2)n1Cc1ccccc1)c1ccccc1,inactive
11,CCOC(=O)/C(=C\c1cccc(O)c1)c1nc2sc(C)c(C)c2c(=O)[nH]1,inactive
12,c1cncc(-c2nnc3n2N=C(c2cccs2)CS3)c1,inactive
13,Cc1ccc(-c2cc(C(=O)OCC(=O)N(C)C3CCS(=O)(=O)C3)c3ccccc3n2)o1 (stereo not given),inactive
14,COc1ccc(-c2nnc(SCC(=O)Nc3nc4ccccc4s3)n2C)cc1,inactive
15,COc1ccc(NC(=O)/C(Cl)=C(/Cl)S(=O)Cc2ccccc2)cn1 (stereo not given),inactive
16,N#CC(C#N)=C1C=CC=CN1/C(=C\c1ccco1)C(=O)c1ccccc1,inactive
17,Cc1ccc2c(C)c(C(=O)Nc3nnc(C)s3)oc2c1,inactive
18,O=C(c1ccc(CNS(=O)(=O)c2ccc(Br)cc2)cc1)N1CCCC1,inactive
19,COc1ccccc1NC(=O)CSc1nnc(-c2ccco2)n1Cc1ccco1,inactive
20,COc1cc(/C=N/NC(=O)CN(Cc2ccco2)S(=O)(=O)c2ccccc2)ccc1O,inactive
21,CC(C)(C)C1CCC(=NNC(=O)c2cc3c(s2)CCCC3)CC1 (stereo not given),inactive
22,COC(=O)c1ccc(C)c(NC(=O)CCNC(=O)c2ccc([N+](=O)[O-])cc2)c1,inactive

row,Structure (SMILES),percent span inhibition
1,CC(=O)Nc1ccc2nc(CN3CCN(CC(C)C)C(CCO)C3)ccc2c1 (stereo not given),inactive
2,Cc1ccc(C)c(NC(=O)C(=O)NCc2ccccn2)c1,inactive
3,Cc1cc(-c2csc(N)n2)c(C)n1CCC(C)C,inactive
4,COc1cc(CNc2ccc(N3CCCC3)cc2)cc(Cl)c1OC,inactive
5,O=C(CSc1nnc(Cc2ccccc2)o1)NCc1ccco1,inactive
6,Cc1cccc(N2CCN(C(=S)Nc3ccc4nc(N5CCN(C)CC5)cc(C)c4c3)CC2)c1C,inactive
7,Cc1cc(N2CCN(C)CC2)nc2ccc(NC(=S)N3CCN(c4cccc(Cl)c4)CC3)cc12,inactive
8,NC(=O)c1c(NC(=O)C2CCCO2)sc2c1CCCCC2 (stereo not given),inactive
9,C=CCSc1nc(N)c2c(C)c(C)sc2n1,inactive
10,COc1ccc(N2C(=O)C(Cl)=C(Nc3ccccc3O)C2=O)cc1,inactive
11,CCN(CC)S(=O)(=O)c1cccc(C(=O)N/N=C/c2ccc(O)c(O)c2O)c1,inactive
12,O=C(Nc1ccccc1N1CCOCC1)c1cccs1,inactive
13,Cc1ccc(NC(=O)CSc2nc3ccccc3c(=O)n2CCCN2CCCCC2)cc1Cl,inactive
14,CN(Cc1ccccc1)C(=O)c1[nH]cnc1C(=O)N[C@@H](CCCCNC(=O)OC(C)(C)C)C(=O)OC(C)(C)C,inactive
15,CNc1ccc(Br)cc(C(=O)/C=C/c2ccc(OC)cc2OC)c1=O,inactive
16,O=C1NC(=O)C2(Cc3c(nc4ccccn4c3=O)N3CCCCCC32)C(=O)N1Cc1ccccc1 (stereo not given),inactive
17,O=[N+]([O-])c1c(NCCCO)cc(Sc2nc3ccccc3s2)c2nonc12,inactive
18,Cc1ccccc1/C=N/Nc1ccnc2cc(Cl)ccc12,inactive
19,Cc1ccc(NS(=O)(=O)c2cc(NC(=O)c3ccc4c(c3)NC(=O)CS4)ccc2C)c(C)c1,inactive
20,Cc1ccc(/C=C/C2=Cc3c(sc(NC(=O)CSc4n[nH]c(N)n4)c3C#N)C(C)(C)C2)o1,inactive
21,O=C(O)CC1S/C(=N/N=C/C=C/c2ccccc2[N+](=O)[O-])NC1=O (stereo not given),inactive
22,CCOC(=O)C1=C(CP(=O)(c2ccccc2)c2ccccc2)NC(=O)NC1c1ccc(OC)cc1 (stereo not given),inactive

row,Structure (SMILES),percent span inhibition
1,O=C1c2ccccc2C(=O)N1c1cccc2cccnc12,inactive
2,Clc1ccc2c(N/N=C/c3cccc(Br)c3)ccnc2c1,inactive
3,COC(=O)CSc1ncnc2c1sc1nc(-c3ccco3)c3c(c12)CC(C)(C)OC3,inactive
4,CC(NC(=O)Nc1ccccn1)N1C(=O)C2C3C=CC(C3)C2C1=O (stereo not given),inactive
5,COc1cccc2c(SCC(=O)N/N=C/c3ccc(O)cc3O)cc(C)nc12,inactive
6,Cc1ccc(C(=O)/C=C/c2ccc(-c3ccc(C)cc3)o2)cc1,inactive
7,O=C(NCc1ccco1)C1CC2CCC1C2 (stereo not given),inactive
8,O=C(Nc1nnc(SCc2ccccn2)s1)C1CC(=O)N(c2ccccc2)C1 (stereo not given),inactive
9,Cc1cc2nn(-c3cccc4ccccc34)nc2cc1N,inactive
10,Cc1cc(C)nc(SCc2cc(=O)c(OC(=O)c3cccc([N+](=O)[O-])c3)co2)n1,inactive
11,CCOc1cccc(CNc2ccc(O)cc2)c1OCc1ccccc1Cl,inactive
12,CCc1nnc(NS(=O)(=O)c2ccc(N=CC3=C(O)CC(C)(C)CC3=O)cc2)s1,inactive
13,Fc1ccccc1-n1cc(-c2ccccc2)[nH]c1=S,inactive
14,CCOC(=O)/C(=C\c1ccc(Cl)cc1)c1nc2sc(C)c(C)c2c(=O)[nH]1,inactive
15,CC(C)COC(=O)/C(C#N)=C/c1cn(Cc2ccccc2)c2ccccc12,inactive
16,CCN1/C(=C/c2ccc3cc(C)cc(C)c3[n+]2CC)Sc2cc(C)ccc21,inactive
17,CCC(=O)OCCNc1cc(Sc2nc3ccccc3s2)c2nonc2c1[N+](=O)[O-],inactive
18,Cc1ccc(-c2cc(C(=O)Nc3nccs3)c3ccccc3n2)o1,inactive
19,Cc1nnc(Sc2cc(NCCCO)c([N+](=O)[O-])c3nonc23)s1,inactive
20,CC(C(=O)Nc1cc([N+](=O)[O-])ccc1Cl)N1CCN(c2ccc(O)cc2)CC1 (stereo not given),inactive
